9 compounds from patent US10167283B2, “β-lactamase inhibitors and uses thereof” (priority 2015, dated 2019) can be followed below.

Each structure is given as a SMILES string. pIC50: −log10 of the molar value. Structures can show the parent of a compound that is named as a salt. Where two headings read alike, the source gives them in different places.

Data set [1] has as its system Escherichia coli BAA-2523 (OXA-48). Description: In vitro antibacterial activity, agar dilution MIC. Type of data set: cell-based. An excerpt:
(§1) Experimental strains: all experimental standard bacterial strains for enzyme production were purchased from ATCC, and the clinically separated CRE strain was purchased from Southwest Hospital of the Third Military Medical University.
(§2) Experimental Method: Agar dilution method, referring to M100-S23: Performance Standards for Antimicrobial Susceptibility Testing: Twenty-Third Informational Supplement (Clinical And Laboratory Standards Institute, 2013). Minimal inhibitory concentration (MIC, μg/mL) was calculated.
For orientation: In agar dilution the substance is mixed into plates at graded concentrations.

For data set [2], the system named is Klebsiella pneumoniae BAA-1900 (KPC). Description: In vitro antibacterial activity, agar dilution MIC. Type of data set: cell-based.
From the text: as §1, §2

In data set [3] the test system is Enterobacter hormaechei BAA-2082 (KPC). Description: In vitro antibacterial activity, agar dilution MIC. The format is cell-based. The following applies: Enterobacter hormaechei, BAA2082.
From the text: as §1, §2

Data set [4] has as its system Escherichia coli BAA-196 (TEM-10). In words: In vitro antibacterial activity, agar dilution MIC. Type of data set: cell-based.
From the text: as §1, §2

Data set [5] has as its system Klebsiella pneumoniae BAA-2524 (OXA-48). In words: In vitro antibacterial activity, agar dilution MIC. The format is cell-based. The note with it: Klebsiella pneumoniae, BAA2524.
From the text: as §1, §2

Data set [6] relates to Escherichia coli BAA-2452 (NDM-1). Description: In vitro antibacterial activity, agar dilution MIC. Type of data set: cell-based.
From the text: as §1, §2

Data set [7] relates to Enterobacter cloacae BAA-2341 (KPC). Description: In vitro antibacterial activity, agar dilution MIC. Type of data set: cell-based. The following applies: Enterobacter cloacae, BAA2341.
From the text: as §1, §2

Data set [8] can be described thus: Pharmacokinetics in SD rats (iv). The note with it: male, plasma; for half-life / clearance: SD, rat, iv, 1 mg/kg; for clearance: read-out: Cl—obs (converted); for Vd / AUC(0-t): SD rat, iv 1 mg/kg; for Vd: apparent volume of distribution, read-out: Vss—obs; for AUC(0-t): area under the curve 0→t. Type of data set: in vivo, SD rat. As to the method:
Experimental Example 1: Pharmacokinetics Experiments of the Compound of the Present Invention in Rats Test animals: 3 male SD rats, bodyweight 200-250 g for each animal. Test samples were administrated via intravenous push (iv), dosage of administration was 1 mg/kg, volume of administration was 2 mL/kg. Collecting time points: iv: after administration 0.083 […]. At each time point, about 100 μL of whole blood was sampled via caudal vein, added to K2EDTA anti-coagulative tube, centrifuged in a refrigerated centrifuge under 8000 rpm for 6 min to separate plasma, and the plasma was stored in -80° C. refrigerator. Plasma (20 μL) was taken and placed in a 96-well deep-well plate, and internal standard solution (300 μL) was added, subjected to vortex for 5 min, then centrifuged under 12000 rpm for 5 min, and then supernatant (200 μL) was taken and subjected to vortex for 3 min; to be analyzed by LC-MS/MS. Plasma (30 μL) was taken and placed in 1.5 mL EP tube, and internal standard solution (300 μL) was added, subjected to vortex for 5 min, then centrifuged under 12000 rpm for 5 min, and then supernatant (200 μL) was taken and subjected to vortex for 3 min; to be analyzed by LC-MS/MS. Plasma (30 μL) was taken and placed in a 96-well deep-well plate, and internal standard solution (200 μL) was added, subjected to vortex for 5 min, then centrifuged under 4000 rpm for 20 min, and then supernatant (100 μL) was taken and water (100 μL) was added, and subjected to vortex homogeneously; to be analyzed by LC-MS/MS.

A further data set has as its target T1, AmpC (UniProt P05364).
T1 construct: The concentration of purchased β-lactamases mother liquor was 1 mg/mL, and the mother liquor was dissolved in 50% glycerol
Description: β-lactamase inhibition, Nitrocefin hydrolysis. The note with it: read-out: IC50 Type C AmpC; Experiment 1; enzyme 0.4 nM, Nitrocefin 0.1 mM. Type of data set: biochemical. As to the method: (§3) Nitrocefin, a kind of cephalosporin antibiotics, is sensitive to most of β-lactamases, and changes in color after being hydrolyzed. The hydrolysis rate of Nitrocefin was measured by real-time recording corresponding absorbance of reaction system. β-Lactamase inhibitors could inhibit hydrolysis of the enzymes to Nitrocefin, and reduce hydrolysis rate. By measuring reaction rates in the same reaction system under different inhibitor concentrations, the IC50 (half maximal inhibitory concentration) values of inhibitors were calculated.
(§4) Nitrocefin was dissolved in DMSO to form a solution with concentration of 2 mM, which was sub-packaged and stored at −20° C. The concentration of purchased β-lactamases mother liquor was 1 mg/mL, and the mother liquor was dissolved in 50% glycerol. A part of mother liquor was taken and diluted by 1000 times in reaction solution, sub-packaged and stored at ˜20° C.
(§5) The compounds to be tested were dissolved in DMSO to form a mother liquor with concentration of 10 mM. If not used that day, the mother liquor was stored at −20° C. Its test final concentrations were: 100 μM, 25 μM, 6.25 μM, 1.563 μM, 390.6 nM, 97.66 nM, 24.41 nM, 6.10 nM, 1.53 nM, 0.381 nM, 0.095 nM.

The next data set has as its target T2, KPC-2 (Klebsiella pneumoniae, UniProt Q9F663).
T2 construct: purchased
In words: β-lactamase inhibition, Nitrocefin hydrolysis. Type of data set: biochemical. As to the method: as §3, §4, §5

The target of a further data set is T3, TEM-1 (Escherichia coli, UniProt P62593).
T3 construct: purchased
In words: β-lactamase inhibition, Nitrocefin hydrolysis. Type of data set: biochemical. The note with it: Experiment 1; enzyme 0.25 nM, Nitrocefin 0.1 mM; read-out: IC50 ESBLs type TEM-1. The protocol: as §3, §4, §5

Data set [9] has as its system Klebsiella pneumoniae 7484kpn-631 (IMP, ESBLs). In words: In vitro antibacterial activity on clinically separated CRE strain, agar dilution MIC. Type of data set: cell-based. The note with it: first Table 4, 7484kpn-631 Klebsiella pneumoniae.
From the text: as §1, §2

The test system of data set [10] is Enterobacter cloacae 7513ecl-314 (AmpC). The description is as above. The format is cell-based. The note with it: first Table 4, 7513ecl-314 Enterobacter cloacae.
From the text: as §1, §2

The subject of data set [11] is Klebsiella pneumoniae 7463kpn-610 (ESBLs). The data set is described as above. The format is cell-based. The following applies: first Table 4, 7463kpn-610 Klebsiella pneumoniae.
From the text: as §1, §2

Data set [12] relates to Klebsiella pneumoniae BAA-2146 (NDM-1). In words: In vitro antibacterial activity, agar dilution MIC. Type of data set: cell-based.
From the text: as §1, §2

The target of the next data set is T4, OXA-10 (Pseudomonas aeruginosa, UniProt P14489).
T4 construct: purchased
In words: β-lactamase inhibition, Nitrocefin hydrolysis. Type of data set: biochemical. The following applies: Experiment 3; enzyme 10 nM, Nitrocefin 0.1 mM; read-out: IC50 Type D OXA-10. The protocol:
as §3, §4, §5

For data set [13], the system named is Klebsiella oxytoca ATCC-51983 (SHV-5). Description: In vitro antibacterial activity, agar dilution MIC. The format is cell-based. The following applies: Klebsiella oxytoca, ATCC51983.
From the text: as §1, §2

The mark [14] stands for this setting: Experiment 1, Nitrocefin 0.1 mM, read-out: IC50 Type A KPC-2.
The mark [15] stands for this setting: BAA2523, first Table 4, BAA-2523 Escherichia coli, OXA-48, read-out: MIC.
Where [16] appears, read: BAA1900, first Table 4, BAA-1900 Klebsiella pneumoniae, KPC, read-out: MIC.
Where [17] appears, read: BAA2146, first Table 4, BAA-2146 Klebsiella pneumoniae, NDM-1, read-out: MIC.
Where [18] appears, read: BAA196, first Table 4, BAA-196 Escherichia coli, TEM-10, read-out: MIC.
Setting [19] is: BAA2452, first Table 4, BAA-2452 Escherichia coli, NDM-1, read-out: MIC.

T3 sequence (P62593 24-286 limits assumed): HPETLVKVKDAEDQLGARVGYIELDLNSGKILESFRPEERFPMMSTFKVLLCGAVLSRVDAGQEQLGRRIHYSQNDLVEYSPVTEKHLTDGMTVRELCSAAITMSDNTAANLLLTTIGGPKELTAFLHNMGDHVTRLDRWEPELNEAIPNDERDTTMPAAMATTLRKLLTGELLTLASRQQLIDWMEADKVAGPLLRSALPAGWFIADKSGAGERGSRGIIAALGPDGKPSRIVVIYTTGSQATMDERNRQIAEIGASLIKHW
T2 sequence (Q9F663 25-293, looked up, species assumed): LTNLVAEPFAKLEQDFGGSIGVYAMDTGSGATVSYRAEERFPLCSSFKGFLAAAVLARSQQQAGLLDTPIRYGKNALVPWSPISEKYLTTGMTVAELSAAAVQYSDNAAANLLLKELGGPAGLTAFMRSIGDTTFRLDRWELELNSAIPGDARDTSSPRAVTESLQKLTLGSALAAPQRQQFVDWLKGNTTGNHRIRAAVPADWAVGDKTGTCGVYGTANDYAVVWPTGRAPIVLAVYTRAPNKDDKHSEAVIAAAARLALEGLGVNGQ
T4 sequence (P14489 20-266, species assumed): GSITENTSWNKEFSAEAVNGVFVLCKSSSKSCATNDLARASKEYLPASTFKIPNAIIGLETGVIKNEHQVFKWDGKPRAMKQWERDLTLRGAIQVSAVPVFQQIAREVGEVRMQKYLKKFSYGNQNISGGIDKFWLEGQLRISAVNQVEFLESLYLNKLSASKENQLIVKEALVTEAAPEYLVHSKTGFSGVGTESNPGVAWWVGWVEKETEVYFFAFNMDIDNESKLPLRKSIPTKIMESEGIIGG

As for `CCN1CC2(CC(NC(=O)[C@@H]3CC[C@@H]4CN3C(=O)N4OS(=O)(=O)O)C2)C1` [Comp. 7 sodium salt, sodium (2S,5R)-2-((2-ethyl-2-azaspiro[3.3]heptan-6-yl)carbamoyl)-7-oxo-1,6-diazabicyclo[3.2.1]octan-6-yl sulfate], the minimal inhibitory concentration (MIC) (in general, the smallest concentration in the dilution series that meets the test's criterion for growth inhibition) in [1] (BAA2523) is 4 µg/mL; in data set [2] (BAA1900), 8 µg/mL; in data set [3], 8 µg/mL; in [4] (BAA196), 8 µg/mL; in data set [5] it was 8 µg/mL; in data set [6] (BAA2452) it was 4 µg/mL. For the same compound, the MIC in [7] was 8 µg/mL.

Regarding `O=C(NC1CC2(CCNCC2)C1)[C@@H]1CC[C@@H]2CN1C(=O)N2OS(=O)(=O)O` [Compound 1, (2S,5R)-2-(7-azaspiro[3.5]nonan-2-ylcarbamoyl)-7-oxo-1,6-diazabicyclo[3.2.1]octan-6-yl hydrogen sulfate], in data set [8], the half-life – broadly, the time in which the quantity being followed falls by half – is 1.01 h; the clearance was 7.77 mL/min/kg; the Vd was 0.294 L/kg; the AUC(0-t) (usually the area under the concentration-time curve up to a stated or last time point) was 2330 ng·h/mL. Moreover, the pIC50 – broadly, the negative decadic logarithm of the IC50, by convention in mol/L – on AmpC was 7.64. The pIC50 at KPC-2 (setting [14]) is 7.09. Besides, the pIC50 on TEM-1 was 7.55.

Consider `O=C(NC1CC2(CNC2)C1)[C@H]1CC[C@@H]2CN1C(=O)N2OS(=O)(=O)O` [Compound 2-2, (2R,5R)-2-((2-azaspiro[3.3]heptan-6-yl)carbamoyl)-7-oxo-1,6-diazabicyclo[3.2.1]octan-6-yl hydrogen sulfate], for which the minimal inhibitory concentration (MIC) is 2 µg/mL in data set [9]; 2 µg/mL in data set [10]; 2 µg/mL in data set [11]; 4 µg/mL in data set [1] (setting [15]); 4 µg/mL in data set [2] (setting [16]); 2 µg/mL in data set [12] (setting [17]). Moreover, the MIC in [4] (setting [18]) and in data set [6] (setting [19]) was 4 µg/mL in each case.

On to `O=C(NC1CC2CCC(C1)N2)[C@@H]1CC[C@@H]2CN1C(=O)N2OS(=O)(=O)O` (stereo partly drawn) [Compound 4, (2S,5R)-2-((8-azabicyclo[3.2.1]octane-3-yl)carbamoyl)-7-oxo-1,6-diazabicyclo[3.2.1]octan-6-yl hydrogen sulfate], for which, in data set [8], the half-life was 2.04 h, the clearance is 12.1 mL/min/kg, the Vd was determined as 0.348 L/kg and the AUC(0-t) was 1390 ng·h/mL. This compound had a pIC50 at KPC-2 of 7.64. Moreover, the pIC50 at TEM-1 was 7.69.

For the compound `O=C(NC1C2CCC1CNC2)[C@@H]1CC[C@@H]2CN1C(=O)N2OS(=O)(=O)O` (stereo partly drawn) [Compound 5, (2S,5R)-2-((3-azabicyclo[3.2.1]octan-8-yl)carbamoyl)-7-oxo-1,6-diazabicyclo[3.2.1]octan-6-yl hydrogen sulfate], the results for the pIC50 at AmpC, at KPC-2 (setting [14]) and on TEM-1 were 7.08, 7.56 and 7.18, respectively.

On to `CN1CC2(CC(NC(=O)[C@@H]3CC[C@@H]4CN3C(=O)N4OS(=O)(=O)O)C2)C1` [Compound 6 sodium salt, sodium (2S,5R)-2-((2-methyl-2-azaspiro[3.3]heptan-6-yl)carbamoyl)-7-oxo-1,6-diazabicyclo[3.2.1]octan-6-yl sulfate], for which, in data set [8], the half-life is 0.25 h, the clearance was 9.08 mL/min/kg, the Vd was 0.219 L/kg and the AUC(0-t) came out at 1840 ng·h/mL. Further, the pIC50 at OXA-10 is 4.66.

On to `CN1CC2(CC(NC(=O)[C@H]3CC[C@@H]4CN3C(=O)N4OS(=O)(=O)O)C2)C1` [Compound 6-2, (2R,5R)-2-((2-methyl-2-azaspiro[3,3]heptan-6-yl)carbamoyl)-7-oxo-1,6-diazabicyclo[3,2,1]octan-6-yl hydrogen sulfate], for which the MIC in data set [9] was determined as 4 µg/mL; in data set [10] it was 4 µg/mL; in [11], 8 µg/mL; in data set [1] (setting [15]), 8 µg/mL; in [2] (setting [16]), 8 µg/mL; in data set [12] (setting [17]), 16 µg/mL. The MIC in [4] (setting [18]) and in data set [6] (setting [19]) was 8 µg/mL throughout.

For `O=C(NC1CC2(C1)CN(C1CC1)C2)[C@@H]1CC[C@@H]2CN1C(=O)N2OS(=O)(=O)O` [Compound 13, (2S,5R)-2-(2-cyclopropyl-2-azaspiro[3.3]heptan-6-ylcarbamoyl)-7-oxo-1,6-diazabicyclo[3.2.1]octan-6-yl hydrogen sulfate], the minimal inhibitory concentration (MIC) in data set [1] (BAA2523) turned out to be 4 µg/mL; in data set [2] (BAA1900), 8 µg/mL; in [13], 8 µg/mL; in [3] it was 16 µg/mL; in data set [4] (BAA196), 16 µg/mL; in [5], 4 µg/mL. In addition, the MIC in data set [6] (BAA2452) amounted to 4 µg/mL.

Regarding `O=C(NC1CC2(C1)CN(CC1CC1)C2)[C@@H]1CC[C@@H]2CN1C(=O)N2OS(=O)(=O)O` [Compound 14, sodium (2S,5R)-2-((2-(cyclopropylmethyl)-2-azaspiro[3.3]heptan-6-yl)carbamoyl)-7-oxo-1,6-diazabicyclo[3.2.1]octan-6-yl sulfate], the MIC was 2 µg/mL in data set [1] (BAA2523); 4 µg/mL in [2] (BAA1900); 8 µg/mL in data set [13]; 8 µg/mL in [12] (BAA2146); 8 µg/mL in [3]; 8 µg/mL in [4] (BAA196). Further, the MIC in data set [5] came out at 4 µg/mL; in data set [6] (BAA2452), 2 µg/mL; in data set [7], 8 µg/mL.
